Data on 15 molecules can be found in PubChem BioAssay (NCI).

Assay in all cases: inhibition of tumour cell growth, NCI panel, 48 h
The test system of assay [1] is A549 NSCLC.
The test system of assay [2] is ACHN renal.
In assay [3] the test system is EKVX NSCLC.
Assay [4] relates to HCT-15 colon.
The subject of assay [5] is HOP-62 NSCLC.
Assay [6] concerns LOX IMVI melanoma.
In assay [7] the test system is M14 melanoma.
Assay [8] has as its system MALME-3M melanoma.
Assay [9] has as its system MDA-MB-435.
Assay [10] relates to MDA-N.
Assay [11] relates to RPMI-8226 leukemia.
Assay [12] relates to SK-MEL-5 melanoma.
The subject of assay [13] is SR leukemia.
In assay [14] the test system is SW-620 colon.
For assay [15], the system named is TK-10 renal.
The test system of assay [16] is UACC-257 melanoma.
Assay [17] relates to UACC-62 melanoma.
In assay [18] the test system is CCRF-CEM leukemia.
In assay [19] the test system is HCT-116 colon.

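Briefly, cells in 96-well plates were exposed to five compound concentrations for 48 h, and endpoints were estimated by linear interpolation. TGI denotes the concentration required for complete inhibition of growth.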

`CCC1=CC(OCc2ccccc2)C(CCN(Cc2ccccc2)C(=O)OCc2ccccc2)C1` (configuration not stated): the TGI came out at 32.1 µM in assay [1]; 30.9 µM in [2]; 32.8 µM in assay [3]; 29.1 µM in assay [4]; 37.1 µM in assay [5]; 32.7 µM in assay [6]. In addition, the TGI in [7] amounted to 27.8 µM; in assay [8], 30.1 µM; in assay [9] it was 32.7 µM; in [10], 54.1 µM; in [11], 86.2 µM; in assay [12] it was 37.8 µM. The TGI came to 56.4 µM in assay [13]; 37 µM in assay [14]; 30.9 µM in assay [15]; 30.3 µM in assay [16]; 24.8 µM in assay [17].
`CC1(C)CC(=O)c2c(-c3ccc(Cl)cc3)c(C#N)c(=S)n(C3OC(CO)C(O)C(O)C3O)c2C1` (configuration not stated): the TGI in assay [1], in assay [2], in assay [18], in [19], in [4] and in [5] was more than 100 µM throughout. Moreover, the TGI is 49.4 µM in [6]; more than 100 µM in assay [7]; more than 100 µM in assay [8]; 80.8 µM in assay [9]; 58.3 µM in assay [10]; more than 100 µM in [11]. Moreover, the TGI in assay [12] is 34.8 µM; in assay [13], more than 100 µM; in [14] it was more than 100 µM; in assay [15] it was more than 100 µM; in assay [16], 98.2 µM; in assay [17], 41.6 µM.
For the molecule `Cc1ccc(NC(=O)c2cccc(OP(=O)(Nc3ccc(C)cc3)Nc3ccc(C)cc3)c2)cc1`, the TGI in assay [1] was 27.2 µM; in assay [2], 20.6 µM; in assay [18], more than 100 µM; in assay [3] it was more than 100 µM; in assay [19], 80.8 µM; in assay [4], more than 100 µM. Also, the TGI in [5] was more than 100 µM; in [6], more than 100 µM; in [7], 9.08 µM; in [8], 39.6 µM; in assay [9], more than 100 µM; in assay [10] it was 21.7 µM. For the same molecule, the TGI in assay [12] was more than 100 µM; in assay [13] it was 17.1 µM; in assay [14], more than 100 µM; in assay [15], 83.4 µM; in assay [16], more than 100 µM; in [17] it was more than 100 µM.
Regarding `CC(C)CCNC(=O)c1ccc(CNC(=O)/C=C/c2ccc3ccccc3c2)cc1`, the TGI in assay [1], in assay [2], in [3], in [19], in assay [4] and in assay [5] was more than 100 µM each time. Besides, the TGI in assay [6], in assay [7], in assay [9], in assay [10], in assay [11] and in assay [12] was more than 100 µM throughout. The TGI in assay [13], in assay [14], in assay [16] and in assay [17] was more than 100 µM each time.
Turning to `O=[N+]([O-])C(C(Cl)=C(Cl)Cl)=C(N1CCCCC1)N1CCCCC1`, the TGI in assay [1], in assay [2], in assay [18], in assay [3], in [19] and in assay [4] was more than 100 µM in each case. The TGI in assay [5], in [6], in [7], in assay [8], in assay [10] and in assay [11] was more than 100 µM in each case. In addition, the TGI in assay [12], in assay [13], in [14], in assay [15], in assay [16] and in assay [17] was more than 100 µM in each case.
In the case of `CC(C)N(C(C)C)S(=O)(=O)CC12CCC(C/C1=N\O)C2` (configuration not stated), the TGI in [1], in [2], in [18], in [3], in [19] and in [4] was more than 100 µM in each case. Besides, the TGI in assay [5], in assay [6], in assay [7], in assay [8], in assay [9] and in [10] was more than 100 µM throughout. The TGI in [12], in [13], in [14], in assay [15], in [16] and in [17] was more than 100 µM throughout.
`COc1cc(-c2nc(N)c(C#N)c3c2CCS(=O)(=O)c2ccc(C)cc2-3)cc(OC)c1OC`: the TGI in assay [1], in assay [2], in [18], in assay [19], in assay [4] and in assay [5] was more than 100 µM each time. In addition, the TGI in [6], in assay [7], in [8], in assay [9], in assay [10] and in assay [11] was more than 100 µM each time. Moreover, the TGI in assay [12] was more than 100 µM; in assay [13], more than 100 µM; in assay [14] it was more than 100 µM; in assay [15], 70 µM; in assay [16], more than 100 µM; in [17], more than 100 µM.
Take `O=C(c1ccccc1)c1ccc(N2C(=O)/C(=C/c3ccccc3S)N=C2c2ccccc2)c(N2C(=O)/C(=C/c3ccccc3S)N=C2c2ccccc2)c1`: the TGI in assay [1], in [2], in [18], in assay [3], in [19] and in assay [4] was more than 100 µM in each case. Further, the TGI in [5] is more than 100 µM; in [6], 62.9 µM; in [7] it was more than 100 µM; in assay [9], 46.1 µM; in assay [10], more than 100 µM; in assay [11], 53.1 µM. Also, the TGI in assay [12] is 87.6 µM; in assay [13], more than 100 µM; in assay [14] it was more than 100 µM; in [15], more than 100 µM; in assay [16] it was more than 100 µM; in assay [17], more than 100 µM.
On to `CC(=O)Oc1ccc2c(c1)[nH]c1c3ccc(OC(C)=O)cc3oc(=O)c21`, for which the TGI is more than 100 µM in assay [1]; 78.3 µM in [2]; 98.8 µM in [18]; 86.1 µM in assay [3]; 78.1 µM in [19]; more than 100 µM in assay [4]. For the same molecule, the TGI in assay [5] is more than 100 µM; in [7], more than 100 µM; in assay [8], more than 100 µM; in [9], more than 100 µM; in assay [10], more than 100 µM; in [12], 68.9 µM. Besides, the TGI is 71.7 µM in [13]; more than 100 µM in [14]; more than 100 µM in assay [15]; more than 100 µM in [16]; more than 100 µM in [17].
In the case of `COC(C)=NCCC1=CCCCC1`, the TGI in assay [1], in assay [2], in assay [3], in [19], in assay [4] and in [5] was more than 100 µM each time. For the same molecule, the TGI in assay [7], in assay [8], in assay [9], in assay [10], in assay [11] and in assay [12] was more than 100 µM in each case. In addition, the TGI in assay [13], in assay [14], in assay [15], in [16] and in [17] was more than 100 µM throughout.
Consider `Cc1cc(NS(=O)(=O)c2ccc(NO)cc2)no1`, for which the TGI was more than 100 µM in assay [1]; more than 100 µM in assay [2]; 44.7 µM in assay [18]; more than 100 µM in assay [3]; more than 100 µM in assay [19]; more than 100 µM in assay [4]. For the same molecule, the TGI in assay [5] is more than 100 µM; in assay [6], 39.6 µM; in [7], more than 100 µM; in assay [8], more than 100 µM; in [9] it was 41.4 µM; in [10], 44.4 µM. In addition, the TGI in assay [12] is more than 100 µM; in assay [13] it was 46.2 µM; in assay [14], 82.9 µM; in assay [15], more than 100 µM; in [16], more than 100 µM; in assay [17] it was more than 100 µM.
For the molecule `O=C(Nn1c(-c2ccccc2)nc2ccccc2c1=O)c1cccc([N+](=O)[O-])c1`, the TGI in [1], in assay [2], in assay [18], in assay [3], in [19] and in assay [4] was more than 100 µM in each case. The TGI in [5], in assay [6], in [7], in assay [9], in assay [10] and in assay [11] was more than 100 µM throughout. Besides, the TGI in assay [12], in assay [13], in [14], in assay [15], in [16] and in [17] was more than 100 µM each time.
Regarding `COc1cccc(CCn2c(N)c(-c3cc(Cl)cc(Cl)c3)c3ccc([N+](=O)[O-])cc3c2=O)c1`, the TGI is more than 100 µM in assay [1]; 22.5 µM in [2]; more than 100 µM in assay [3]; 12.7 µM in [19]; more than 44.5 µM in assay [4]; more than 100 µM in assay [5]. Further, the TGI in assay [6] was more than 56.1 µM; in [7], more than 100 µM; in assay [8], 32.6 µM; in assay [9] it was more than 100 µM; in assay [10], more than 100 µM; in assay [11], 3.02 µM. Further, the TGI in assay [12] was 9.07 µM; in assay [13], more than 64.8 µM; in [14], more than 100 µM; in assay [15] it was more than 100 µM; in assay [16] it was 24.4 µM; in assay [17] it was more than 100 µM.
For `CC(C)=CCC/C(C)=C/Cc1c2c(c3oc(-c4ccc(O)c(O)c4)c(O)c(=O)c3c1O)C=CC(C)(C)O2`, the TGI in [1] turned out to be 12.4 µM; in [2], 7.83 µM; in [18], 8.82 µM; in [19] it was 8.56 µM; in [4], 8.39 µM; in assay [5], 10.7 µM. In addition, the TGI in assay [7] was found to be 9.42 µM; in assay [8], 4.01 µM; in [9] it was 12.6 µM; in [10] it was 11.4 µM; in assay [11] it was 9.93 µM; in assay [12], 9.86 µM. In addition, the TGI in assay [13] is 6.94 µM; in assay [15], 11.2 µM; in assay [16], 11.2 µM; in assay [17], 12.4 µM.
As for `CCn1c2ccccc2c2ccc(C3C4C(=O)N(c5cccc6ccccc56)C(=O)C4ON3C(C(N)=O)c3ccccc3)cc21` (configuration not stated), the TGI in [1], in assay [2], in [3], in assay [19], in assay [4] and in assay [5] was more than 25 µM throughout. For the same molecule, the TGI in assay [6], in assay [7], in [8], in assay [9], in assay [10] and in [12] was more than 25 µM each time. Moreover, the TGI in [13] was more than 25 µM; in assay [14] it was more than 25 µM; in [15], 21.8 µM; in [16], more than 25 µM; in assay [17], more than 25 µM.
